This is an account of results in US9777008B2, “PRMT5 inhibitors and uses thereof” (Epizyme, Inc., priority 2012, dated 2017).

In assay [1] the target is PRMT5/MEP50 (Homo sapiens (Human), UniProt O14744). In words: PRMT5 Biochemical Assay (PRMT5/MEP50 enzyme assay on peptide substrate, 3H-SAM Flashplate). The source says: S-adenosylmethionine (SAM), S-adenosylhomocysteine (SAH), bicine, KCl, Tween20, dimethylsulfoxide (DMSO), bovine skin gelatin (BSG), and Tris(2-carboxyethyl)phosphine hydrochloride solution (TCEP) were purchased from Sigma-Aldrich at the highest level of purity possible. ^3H-SAM was purchase from American Radiolabeled Chemicals with a specific activity of 80 Ci/mmol. 384-well streptavidin Flashplates were purchased from PerkinElmer.
Chain of PRMT5/MEP50 (O14744 other isoform, or with tags, fused parts or gaps): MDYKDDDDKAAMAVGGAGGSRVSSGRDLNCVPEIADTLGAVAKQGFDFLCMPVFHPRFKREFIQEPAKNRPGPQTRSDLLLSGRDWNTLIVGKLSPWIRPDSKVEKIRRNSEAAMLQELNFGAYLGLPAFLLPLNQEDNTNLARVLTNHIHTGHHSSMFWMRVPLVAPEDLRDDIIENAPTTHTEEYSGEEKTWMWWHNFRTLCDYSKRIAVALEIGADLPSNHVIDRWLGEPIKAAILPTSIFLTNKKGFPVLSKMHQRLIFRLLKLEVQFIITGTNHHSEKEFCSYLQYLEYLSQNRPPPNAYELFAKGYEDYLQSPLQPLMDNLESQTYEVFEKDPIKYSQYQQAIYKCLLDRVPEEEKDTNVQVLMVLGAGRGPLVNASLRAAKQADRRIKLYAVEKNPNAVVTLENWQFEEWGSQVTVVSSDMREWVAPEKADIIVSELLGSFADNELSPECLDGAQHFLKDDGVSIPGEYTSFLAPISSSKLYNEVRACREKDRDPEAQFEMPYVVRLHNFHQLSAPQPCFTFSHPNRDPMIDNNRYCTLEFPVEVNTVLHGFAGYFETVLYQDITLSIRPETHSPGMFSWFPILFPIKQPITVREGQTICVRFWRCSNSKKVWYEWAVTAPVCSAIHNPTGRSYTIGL
Chain of PRMT5/MEP50 (Q9BQA1 other isoform, or with tags, fused parts or gaps partner): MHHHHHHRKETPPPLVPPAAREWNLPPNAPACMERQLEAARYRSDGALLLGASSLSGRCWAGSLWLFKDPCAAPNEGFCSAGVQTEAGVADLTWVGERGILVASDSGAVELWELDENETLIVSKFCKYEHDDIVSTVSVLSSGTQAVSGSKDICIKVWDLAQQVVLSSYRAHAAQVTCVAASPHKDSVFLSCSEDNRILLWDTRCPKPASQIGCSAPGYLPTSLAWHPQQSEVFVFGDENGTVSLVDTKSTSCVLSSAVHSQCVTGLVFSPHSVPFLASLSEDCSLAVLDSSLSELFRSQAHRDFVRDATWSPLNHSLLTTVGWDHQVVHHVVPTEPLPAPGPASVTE
Peptide representative of human histone H4 residues 1-15 was synthesized with a C-terminal linker-affinity tag motif and a C-terminal amide cap by 21st Century Biochemicals. The peptide was high high-performance liquid chromatography (HPLC) purified to greater than 95% purity and confirmed by liquid chromatography mass spectrometry (LC-MS). The sequence was Ac-[…][K-Biot]-amide (SEQ ID NO.:3).
Molecular Biology: Full-length human PRMT5 (NM_006109.3) transcript variant 1 clone was amplified from a fetal brain cDNA library, incorporating flanking 5′ sequence encoding a FLAG tag ([…]) (SEQ ID NO.:4) fused directly to Ala 2 of PRMT5. Full-length human MEP50 (NM_024102) clone was amplified from a human testis cDNA library incorporating a 5′ sequence encoding a 6-histidine tag (MHHHHHH) (SEQ ID NO.:5) fused directly to Arg 2 of MEP50. The amplified genes were sublconed into pENTR/D/TEV (Life Technologies) and subsequently transferred by Gateway™ attL×attR recombination to pDEST8 baculvirus expression vector (Life Technologies).
Recombinant baculovirus and Baculovirus-Infected Insect Cells (BIIC) were generated according to Bac-to-Bac kit instructions (Life Technologies) and Wasilko, 2006, respectively. Protein over-expression was accomplished by infecting exponentially growing Spodoptera frugiperda (SF9) cell culture at 1.2×10^6 cell/ml with a 5000 fold dilution of BIIC stock. Infections were carried out at 27° C. for 72 hours, harvested by centrifugation, and stored at −80° C. for purification.
Flag-PRMT5/6His-MeP50 was eluted with 300 mM Imidazole in the same buffer. The purity of recovered protein was 87%. Reference: Wasilko, D. J. and S. E. Lee: “TIPS: titerless infected-cells preservation and scale-up” Bioprocess J., 5 (2006), pp. 29-32.
General Procedure for PRMT5/MEP50 Enzyme Assays on Peptide Substrates.
The assays were all performed in a buffer consisting of 20 mM Bicine (pH=7.6), 1 mM TCEP, 0.005% BSG, and 0.002% Tween20, prepared on the day of use. Compounds in 100% DMSO (1 ul) were spotted into a polypropylene 384-well V-bottom plates (Greiner) using a Platemate Plus outfitted with a 384-channel head (Thermo Scientific). DMSO (1 ul) was added to Columns 11, 12, 23, 24, rows A-H for the maximum signal control and 1 ul of SAH, a known product and inhibitor of PRMT5/MEP50, was added to columns 11, 12, 23, 24, rows I-P for the minimum signal control. A cocktail (40 ul) containing the PRMT5/MEP50 enzyme and the peptide was added by Multidrop Combi (Thermo-Fisher). The compounds were allowed to incubate with PRMT5/MEP50 for 30 min at 25 degrees Celsius, then a cocktail (10 ul) containing ^3H-SAM was added to initiate the reaction (final volume=51 ul). The final concentrations of the components were as follows: PRMT5/MEP50 was 4 nM, ^3H-SAM was 75 nM, peptide was 40 nM, SAH in the minimum signal control wells was 100 uM, and the DMSO concentration was 1%. The assays were stopped by the addition of non-radioactive SAM (10 ul) to a final concentration of 600 uM, which dilutes the ^3H-SAM to a level where its incorporation into the peptide substrate is no longer detectable. 50 ul of the reaction in the 384-well polypropylene plate was then transferred to a 384-well Flashplate and the biotinylated peptides were allowed to bind to the streptavidin surface for at least 1 hour before being washed three times with 0.1% Tween20 in a Biotek ELx405 plate washer. […]

The test system of assay [2] is symmetric di-methyl arginine in Z-138 cells. In words: Z-138 Methylation Assay (In Cell Western for symmetric di-methyl arginine and DNA content). The class given is cell-based. Particulars: Homo sapiens, read-out: ICW EC50. An excerpt: [formula] [formula] Where top and bottom are the normally allowed to float, but may be fixed at 100 or 0 respectively in a 3-parameter fit. The Hill Coefficient normally allowed to float but may also be fixed at 1 in a 3-parameter fit. Y is the % inhibition and X is the compound concentration. Z-138 Methylation Assay
Z-138 suspension cells were purchased from ATCC (American Type Culture Collection, Manassas, Va.). RPMI/Glutamax medium, penicillin-streptomycin, heat inactivated fetal bovine serum, and D-PBS were purchased from Life Technologies, Grand Island, N.Y., USA. Odyssey blocking buffer, 800CW goat anti-rabbit IgG (H+L) antibody, and Licor Odyssey infrared scanner were purchased from Licor Biosciences, Lincoln, Nebr., USA. Symmetric di-methyl arginine antibody was purchased from EMD Millipore, Billerica, Mass., USA. 16% Paraformaldehyde was purchased from Electron Microscopy Sciences, Hatfield, Pa., USA. Z-138 suspension cells were maintained in growth medium (RPMI 1640 supplemented with 10% v/v heat inactivated fetal bovine serum and 100 units/mL penicillin-streptomycin) and cultured at 37° C. under 5% CO2.
Cell Treatment, in Cell Western (ICW) for Detection of Symmetric Di-Methyl Arginine and DNA Content.
Z-138 cells were seeded in assay medium at a concentration of 50,000 cells per mL to a 384-well cell culture plate with 50 μL per well. Compound (100 nL) from 384 well source plates was added directly to 384 well cell plate. Plates were incubated at 37° C., 5% CO2 for 96 hours. […]
First, the ratio for each well was determined by:
Each plate included fourteen control wells of DMSO only treatment (minimum inhibition) as well as fourteen control wells for maximum inhibition treated with 3 μM of a reference compound (Background wells). The average of the ratio values for each control type was calculated and used to determine the percent inhibition for each test well in the plate. […] Percent inhibition was determined and IC50 curves were generated using triplicate wells per concentration of compound. […]

The structures appear in SMILES notation.

As a reminder, the IC50 is the concentration that inhibits the measured activity by half. Regarding `Cn1ncc2ccc(-c3cccc(OCC(O)CN4CCc5ccccc5C4)c3)cc21` (stereo not shown) [Compound 106], the IC50 in assay [1] is under 100 nM.

In the case of `OC(COc1cccc(-c2ccc3ncn(C4CCNC4)c3c2)c1)CN1CCc2ccccc2C1` (stereo not shown) [Compound 209, 1-(3,4-dihydroisoquinolin-2(1H)-yl)-3-(3-(1-(pyrrolidin-3-yl)-1H-benzo[d]imidazol-6-yl)phenoxy)propan-2-ol], the IC50 in assay [1] was under 100 nM.

As to `CC(=O)N(CC(O)CN1CCc2ccccc2C1)c1cccc(-c2ccc3ncn(C)c3c2)c1` (stereo not shown) [Compound 273, N-(3-(3,4-dihydroisoquinolin-2(1H)-yl)-2-hydroxypropyl)-N-(3-(1-methyl-1H-benzo[d]imidazol-6-yl)phenyl)acetamide], in assay [1], the concentration for half-maximal inhibition (IC50) is under 100 nM.

Turning to `Cn1ccc2ccc(-c3cccc(OCC(O)CN4CCc5ccccc5C4)c3)nc21` (stereo not shown) [Compound 176, 1-(3,4-dihydroisoquinolin-2(1H)-yl)-3-(3-(1-methyl-1H-pyrrolo[2,3-b]pyridin-6-yl)phenoxy)propan-2-ol], in assay [1], the concentration for half-maximal inhibition (IC50) was under 100 nM.

In the case of `OC(COc1cccc(-c2ccc3ncn(Cc4ccccc4)c3c2)c1)CN1CCc2ccccc2C1` (stereo not shown) [Compound 105, 1-(3-(1-benzyl-1H-benzo[d]imidazol-6-yl)phenoxy)-3-(3,4-dihydroisoquinolin-2(1H)-yl)propan-2-ol], in assay [1], the 50% inhibitory concentration (IC50) was under 100 nM.

With `CN1CCC(n2cnc3ccc(-c4cccc(OCC(O)CN5CCc6ccccc6C5)c4)cc32)C1` (stereo not shown) [Compound 219], in assay [1], the IC50 was under 100 nM.

Consider `CN1CCC(n2cnc3ccc(-c4ccnc(NCC(O)CN5CCc6ccccc6C5)c4)cc32)CC1` (stereo not shown) [Compound 252], for which the 50% inhibitory concentration (IC50) in assay [1] is under 100 nM.

As to `COc1ccc(Cn2ccc(-c3ccc(OC[C@H](O)CN4CCc5ccccc5C4)cc3)n2)cc1` [Compound 41], in assay [1], the half-maximal inhibitory concentration (IC50) lay within 1000 to 10000 nM.

Broadly, the EC50 is the concentration giving half of the maximal effect. Consider `O=C(Nc1cccc(OCC(O)CN2CCc3ccccc3C2)c1)c1cccnc1` (stereo not shown) [Compound 163], for which the IC50 in assay [1] was in the range of 1000 to 10000 nM. Moreover, the EC50 in assay [2] lay within 1000 to 10000 nM.

With `OC(COCC1CCCCO1)CN1CCc2ccccc2C1` (stereo not shown) [Compound 304], the IC50 in assay [1] was over 40000 nM.

`CCOC(=O)C1c2ccccc2CCN1CC(O)COc1cccc(-c2ccc3ncn(C)c3c2)c1` (stereo not shown) [Compound 193]: the 50% inhibitory concentration (IC50) in assay [1] is over 40000 nM.

As for `O[C@@H](COc1cccc(CNC2CCCC2)c1)CN1CCc2ccccc2C1` [Compound 23], the IC50 in assay [1] lay within 1000 to 10000 nM.

Take `Cn1cnc2ccc(-c3ccnc(NC[C@@H](O)CN4CCc5ccccc5C4)c3)cc21` [Compound 276]: in assay [1], the IC50 lay within 101 to 1000 nM.

`CN1CCN(C(=O)Cn2ccc3cnc(-c4ccnc(NCC(O)CN5CCc6ccccc6C5)c4)nc32)CC1` (stereo not shown) [Compound 247]: the IC50 in assay [1] is under 100 nM.

Regarding `O[C@@H](COc1cccc(-c2cccc3cccnc23)c1)CN1CCc2ccccc2C1` [Compound 257, (R)-1-(3,4-dihydroisoquinolin-2(1H)-yl)-3-(3-(quinolin-8-yl)phenoxy)propan-2-ol], in assay [1], the IC50 was under 100 nM.
